In ChEMBL document CHEMBL3217669, “Activation of a silent phenazine biosynthetic gene cluster reveals a novel natural product and a new resistance mechanism against phenazines” (Medchemcomm, 2012):
The source made the active and inactive calls. No cut-off for these calls is given here.

Assays:
Assay type in all cases: functional, organism-based
[1] = system: Streptomyces coelicolor; assay: Antibacterial activity against Streptomyces coelicolor M512 assessed as growth inhibition up to 0.5 umol after 48 hrs
[2] = system: Bacillus subtilis; assay: Antibacterial activity against Bacillus subtilis ATCC 14893 assessed as growth inhibition at 0.5 umol after overnight incubation
[3] = system: Escherichia coli; assay: Antibacterial activity against Escherichia coli K-12 assessed as growth inhibition at 0.5 umol after overnight incubation

Structure (SMILES) | growth inhibition (GI) [1] | growth inhibition (GI) [2] | growth inhibition (GI) [3]
O=C(O)c1cccc2nc3ccccc3nc12 | inactive | Active | inactive
NC(=O)CC[C@H](NC(=O)c1cccc2nc3ccccc3nc12)C(=O)O | inactive | inactive | inactive
